According to PMC4356640 (Pharmacogenetics and genomics, 2015):

Assays:
CYP2D6 enzyme activity = assay: 13C-dextromethorphan breath test; type: in vivo, human
[1] = Tamoxifen and metabolite steady state plasma concentrations; conditions: for 3m or 6m steady state concentrations correlated with age: p-values > 0.11; for pharmacokinetics differ by CYP2D6 genotype: 3 and 6 month visits

## Fc1ccc([C@@H]2CCNC[C@H]2COc2ccc3c(c2)OCO3)cc1 [paroxetine]
CYP2D6 enzyme activity; one patient who took paroxetine prior to the baseline visit
  baseline DOB30 values lower than at 3 and 6 month visits after paroxetine was discontinued: > 50%

## CC/C(=C(\c1ccccc1)c1ccc(OCCN(C)C)cc1)c1ccccc1 [tamoxifen, Tamoxifen, reference compound]
[1]
  3m or 6m steady state concentrations correlated with age: no evidence

## COc1ccc2c(c1)[C@]13CCCC[C@@H]1[C@H](C2)N(C)CC3 [DM, Dextromethorphan]
CYP2D6 enzyme activity; Spearman, p < 0.0001, n=77
  correlation (r) of baseline DM-BT values with CYP2D6 genotype: 0.55
CYP2D6 enzyme activity; Spearman, p < 0.001, n=55
  correlation (r) of 6m DM-BT values with CYP2D6 genotype: 0.55
CYP2D6 enzyme activity; Spearman, p< 0.0001, n=60
  correlation (r) of 3m DM-BT values with CYP2D6 genotype: 0.58

## CC/C(=C(\c1ccccc1)c1ccc(OCCNC)cc1)c1ccccc1 [NDMT, N-desmethyltamoxifen]
[1]
  pharmacokinetics differ by CYP2D6 genotype: Neither tamoxifen, NDMT, or 4HT pharmacokinetics were found to differ by CYP2D6 genotype
  3m or 6m steady state concentrations correlated with age: no evidence

## CC/C(=C(\c1ccc(O)cc1)c1ccc(OCCNC)cc1)c1ccccc1 [Endx, endoxifen]
[1]; Spearman, p < 0.0001, n=57
  correlation (r) of CYP2D6 genotype with 3m Endx Css: 0.47
  correlation (r) of CYP2D6 genotype with 3m Endx/NDMT ratio: 0.60
[1]; Spearman, p<0.0001, n=54
  correlation (r) of CYP2D6 genotype with 6m Endx/NDMT ratio: 0.61
  correlation (r) of CYP2D6 genotype with 6 month Endx Css: 0.56
[1]; comparison with ref 14
  concentrations of endoxifen, fold lower than that of Lien et al: ~8 fold
[1]; human, plasma, oral, 20 mg daily, Median Endx concentration (range), Endx Css, 3 months, CYP2D6 PM/PM, activity score 0, n=2
  concentration at 3 months: 5.5 nM
[1]; human, plasma, oral, 20 mg daily, Median Endx concentration (range), Endx Css, 6 months, CYP2D6 PM/PM, activity score 0, n=2
  concentration at 6 months: 6.7 nM
[1]
  3m or 6m steady state concentrations correlated with age: no evidence

## CC/C(=C(\c1ccc(O)cc1)c1ccc(OCCN(C)C)cc1)c1ccccc1 [4HT, 4-hydroxytamoxifen]
[1]
  pharmacokinetics differ by CYP2D6 genotype: Neither tamoxifen, NDMT, or 4HT pharmacokinetics were found to differ by CYP2D6 genotype
  3m or 6m steady state concentrations correlated with age: no evidence
